Among the data in ChEMBL document CHEMBL4414609, “High-Affinity Alkynyl Bisubstrate Inhibitors of Nicotinamide N-Methyltransferase (NNMT)” (J Med Chem, 2019) are inhibition and IC50 values, retold here.

Molecules are shown by their SMILES.

Data set [1] concerns the target T1, PNMT (phenylethanolamine N-methyltransferase) (Homo sapiens, UniProt P11086).
T1 sequence (P11086 whole entry): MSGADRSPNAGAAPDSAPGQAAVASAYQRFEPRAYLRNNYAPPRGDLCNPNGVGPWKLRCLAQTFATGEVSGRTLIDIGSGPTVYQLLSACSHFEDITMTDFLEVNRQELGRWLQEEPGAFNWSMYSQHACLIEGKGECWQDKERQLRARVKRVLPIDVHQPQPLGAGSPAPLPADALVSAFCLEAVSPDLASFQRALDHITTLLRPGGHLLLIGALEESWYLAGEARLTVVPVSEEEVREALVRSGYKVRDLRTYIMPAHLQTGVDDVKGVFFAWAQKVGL
Description: Inhibition of human PNMT expressed in Escherichia coli at 10 uM assessed as reduction in SAH level using DL-normetanephrine as substrate in presence of SAM incubated for 45 mins by LC-MS/MS analysis relative to control. As to conditions: recombinant human PNMT expressed in Escherichia coli, probe DL-normetanephrine.

The target of data set [2] is T2, GNMT (glycine N-methyltransferase) (Homo sapiens, UniProt Q14749).
T2 sequence (Q14749 whole entry): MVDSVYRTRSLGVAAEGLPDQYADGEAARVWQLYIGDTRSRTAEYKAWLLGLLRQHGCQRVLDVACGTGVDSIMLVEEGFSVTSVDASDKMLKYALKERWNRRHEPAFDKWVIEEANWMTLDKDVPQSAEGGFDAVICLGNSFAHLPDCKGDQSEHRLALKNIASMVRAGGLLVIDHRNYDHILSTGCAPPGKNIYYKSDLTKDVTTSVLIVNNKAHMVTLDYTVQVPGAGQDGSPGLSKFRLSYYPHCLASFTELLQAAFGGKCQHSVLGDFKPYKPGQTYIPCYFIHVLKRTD
Description: Inhibition of human GNMT expressed in Escherichia coli at 10 uM assessed as reduction in SAH level using glycine as substrate in presence of SAM incubated for 30 mins by LC-MS/MS analysis relative to control. Particulars: recombinant human GNMT expressed in Escherichia coli, probe glycine.

Data set [3] concerns the target T1, PNMT (phenylethanolamine N-methyltransferase). Description: Inhibition of human PNMT expressed in Escherichia coli at 1 uM assessed as reduction in SAH level using DL-normetanephrine as substrate in presence of SAM incubated for 45 mins by LC-MS/MS analysis relative to control. Particulars: recombinant human PNMT expressed in Escherichia coli, probe DL-normetanephrine.

Data set [4] addresses T3, Histone-lysine N-methyltransferase EHMT1 (Homo sapiens, UniProt Q9H9B1).
T3 sequence (Q9H9B1 whole entry): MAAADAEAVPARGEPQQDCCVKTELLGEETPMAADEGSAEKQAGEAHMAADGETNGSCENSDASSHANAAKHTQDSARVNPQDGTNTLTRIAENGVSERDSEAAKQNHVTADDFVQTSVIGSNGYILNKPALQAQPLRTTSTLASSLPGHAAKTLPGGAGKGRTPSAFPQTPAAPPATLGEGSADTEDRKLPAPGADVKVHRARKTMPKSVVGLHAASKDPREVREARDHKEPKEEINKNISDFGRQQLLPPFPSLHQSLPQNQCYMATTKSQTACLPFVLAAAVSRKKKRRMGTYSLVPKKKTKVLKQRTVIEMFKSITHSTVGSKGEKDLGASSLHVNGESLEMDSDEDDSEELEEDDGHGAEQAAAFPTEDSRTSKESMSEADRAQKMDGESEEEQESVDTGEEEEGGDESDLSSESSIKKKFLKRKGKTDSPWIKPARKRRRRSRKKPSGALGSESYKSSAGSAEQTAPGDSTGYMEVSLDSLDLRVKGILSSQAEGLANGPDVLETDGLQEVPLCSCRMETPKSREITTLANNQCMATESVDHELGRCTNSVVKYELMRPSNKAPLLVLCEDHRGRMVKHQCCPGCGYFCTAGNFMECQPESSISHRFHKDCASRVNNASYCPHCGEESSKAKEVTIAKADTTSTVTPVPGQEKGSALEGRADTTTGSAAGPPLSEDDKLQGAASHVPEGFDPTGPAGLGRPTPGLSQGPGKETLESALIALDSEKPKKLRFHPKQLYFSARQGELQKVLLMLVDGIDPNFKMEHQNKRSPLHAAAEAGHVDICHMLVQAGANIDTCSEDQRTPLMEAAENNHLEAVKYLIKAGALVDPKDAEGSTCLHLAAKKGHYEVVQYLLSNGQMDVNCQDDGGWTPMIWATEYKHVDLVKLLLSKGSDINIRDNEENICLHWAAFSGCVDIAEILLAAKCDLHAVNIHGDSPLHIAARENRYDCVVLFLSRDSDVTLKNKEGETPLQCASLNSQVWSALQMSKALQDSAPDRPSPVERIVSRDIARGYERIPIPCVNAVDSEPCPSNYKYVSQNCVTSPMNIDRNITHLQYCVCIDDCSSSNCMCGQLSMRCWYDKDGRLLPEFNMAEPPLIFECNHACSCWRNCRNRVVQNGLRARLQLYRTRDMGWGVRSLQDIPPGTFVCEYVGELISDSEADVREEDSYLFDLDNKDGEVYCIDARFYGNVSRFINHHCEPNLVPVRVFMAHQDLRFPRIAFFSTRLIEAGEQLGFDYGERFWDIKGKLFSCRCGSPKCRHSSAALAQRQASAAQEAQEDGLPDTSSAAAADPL
Description: Inhibition of human EHMT1 expressed in Escherichia coli assessed as reduction in methylated histone H3 full length using histone H3 full length as substrate in presence of [3H] SAM incubated for 120 mins by scintillation counting.

In data set [5] the target is Histone-lysine N-methyltransferase SETDB1 (Homo sapiens, UniProt Q15047). Description: Inhibition of human SETDB1 expressed in sf9 insect cells assessed as reduction in methylated histone H3 full length level using histone H3 full length as substrate in presence of [3H] SAM incubated for 30 mins by scintillation counting.
Data set [6] deals with T4, Thiopurine S-methyltransferase (Homo sapiens, UniProt P51580).
T4 sequence (P51580 whole entry): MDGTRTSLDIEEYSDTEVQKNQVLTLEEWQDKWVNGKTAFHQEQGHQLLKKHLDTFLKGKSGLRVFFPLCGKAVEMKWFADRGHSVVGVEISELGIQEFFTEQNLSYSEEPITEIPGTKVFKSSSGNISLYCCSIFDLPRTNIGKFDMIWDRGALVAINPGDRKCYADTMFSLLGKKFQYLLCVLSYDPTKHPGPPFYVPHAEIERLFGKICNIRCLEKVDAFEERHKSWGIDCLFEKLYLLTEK
Description: Inhibition of human TPMT expressed in Escherichia coli assessed as reduction in SAH level using 6-mercaptopurine as substrate in presence of SAM incubated for 30 mins by LC-MS/MS analysis.

Data set [7] has as its target Indolethylamine N-methyltransferase (Homo sapiens, UniProt O95050). Description: Inhibition of wild type human INMT expressed in Escherichia coli using tryptamine as substrate in presence of SAM incubated for 30 mins by MTase-Glo assay.

Sequence of Indolethylamine N-methyltransferase (O95050 whole entry): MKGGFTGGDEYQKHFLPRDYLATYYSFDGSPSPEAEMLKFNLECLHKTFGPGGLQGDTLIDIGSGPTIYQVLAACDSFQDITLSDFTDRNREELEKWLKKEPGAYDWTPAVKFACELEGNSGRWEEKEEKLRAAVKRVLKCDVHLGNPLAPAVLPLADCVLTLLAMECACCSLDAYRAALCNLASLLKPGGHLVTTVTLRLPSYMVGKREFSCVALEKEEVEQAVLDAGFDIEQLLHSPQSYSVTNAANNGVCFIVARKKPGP

One may read the inhibition as how much of the control response was suppressed. For orientation: IC50 means the concentration at which inhibition is half-maximal. As to `NC(=O)c1cccc(C#C[C@@H](CC[C@H](N)C(=O)O)C[C@H]2O[C@@H](n3cnc4c(N)ncnc43)[C@H](O)[C@@H]2O)c1`, in data set [1], the inhibition at 0.75 h, 10 µM is 26%. In addition, the inhibition at 0.5 h, 10 µM in data set [2] is 23%. The inhibition at 0.75 h, 1 µM in data set [3] came out at 0%. Besides, the IC50 in data set [4] was over 10 µM; in data set [5], over 10 µM; in data set [6], 1000 nM; in data set [7], 3.4 µM.
